# Test results published in patent publication US11612586B2, “Indole regulation of antigen presenting cells” (THE TEXAS A&M UNIVERSITY SYSTEM, priority 2016, dated 2023).
# Experiments:
# [1] = system: TNF; assay: TNF production in BMDCs, intracellular staining, flow cytometry; type: cell-based, mouse
# [2] = system: Salmonella Typhimurium; assay: Salmonella invasion of HeLa epithelial cells (Salmonella exposed to indole); type: cell-based
# [3] = system: DCs; assay: Antigen-uptake assay in DCs; conditions: FITC-labeled OVA particles
# [4] = system: TGF-β; assay: TGF-β production by BMDC cultures (ELISA); type: cell-based, mouse; conditions: indole-conditioned DCs
# Method: To determine whether this was a specific downregulation of pro-inflammatory cytokines, production of the canonical DC-produced anti-inflammatory cytokines, IL-10 and TGF-β, was also examined.
# Cytokine concentration in the supernatant of BMDC cultures was assessed using commercially available ELISA kits for IL-10 (Peprotech) and TGF-β (eBioscience) per the manufacturer's instructions.
# [5] = system: CCR9; assay: CCR9 surface expression on BMDCs; type: cell-based, mouse; conditions: BMDCs cultured from day 3 with indole (1 mM) or retinoic acid (1 μM), day 7
# Method: FIGS. 12A and 12B graphically illustrate that indole induces CCR9 and B220 on DCs. BMDCs were cultured in the presence of indole (1 mM), retinoic acid (1 μM), or DMF solvent control from day 3. On day 7, DCs were surface stained for expression of CCR9 and B220 and analyzed by flow cytometry. […] Mean of three independent experiments. * indicates p<0.05 for one-way ANOVA followed by Dunnett's post-test.
# Dendritic cell subsets bear numerous surface antigens that regulate their migration and localization. Because indole is produced in the gut and appears to induce anti-inflammatory properties in DCs (as described above), it was hypothesized that indole might affect migration and retention in mucosal tissues. Thus, expression of the gut homing marker, chemokine receptor CCR9 was investigated. […] Retinoic acid (RA) was included as a positive control. RA is present in murine plasma at approximately […] and is predicted to exist at higher concentrations in tissue microenvironments in vivo. Thus, 1 uM was used as a conservative estimate of relevant physiological concentration. Indole's effect was even more profound than that of retinoic acid, a known inducer of mucosal homing markers on T cells (see, e.g., Iwata M, et al. (2004) Retinoic Acid Imprints Gut-Homing Specificity on T Cells. Immunity 21(4):527-538). […]
# [6] = system: Thy1.2+CD4+ T cells; assay: In vivo T cell activation by conditioned, OVA-loaded BMDCs transferred to B6-Thy1.1 mice; design: species or system mouse; conditions: mice receiving BMDCs conditioned with indole
# From the text: FIGS. 17A-17C graphically illustrate that indole-conditioned DCs induce lower T cell activation overall but a greater proportion of Tregs in spleen compared to control. Naïve CD4+CD25− T cells from OT-II (Thy1.2) mice and OVA323-339-loaded BMDCs conditioned with indole, RA, or DMF were transferred to B6-Thy1.1 mice. After 7 days, tissues were harvested and stained for flow cytometric analysis. Data includes total expansion of Thy1.2+CD4+ T cells (FIG. 17A), percentage of Foxp3+CD4+ T cells of expanded T cells (FIG. 17B), and MFI of Foxp3+CD4+ T cells of expanded T cells (FIG. 17C). n=4 mice/group.
# To address the functionality of indole DC-induced Tregs, an in vivo T cell activation system was employed. The pan T cell surface antigen, Thy1, has congenic alleles, Thy1.1 and Thy1.2, which can be used to differentiate donor and recipient T cells. Naïve CD4+CD25− T cells were purified from OT-II (Thy1.2) mice, then transferred them to recipient Thy1.1 mice. Indole-treated, OVA323-339 peptide-loaded BMDCs (Thy1.2) was subsequently transferred to the same recipient Thy1.1 mice. After five days, the recipient mice were sacrificed to assess activation of the transferred naïve T cells, which could only be activated by the transferred, peptide-loaded DCs and are identifiable by the Thy1.2 T cell surface antigen. Cellular populations from the spleen, mesenteric lymph nodes, and pooled distal lymph nodes (axial and inguinal), were examined limiting the analysis to CD4+ T cells bearing the Thy1.2 allele (donor-derived). Importantly, the DCs transferred without OVA peptide loading (negative control) induced virtually undetectable T cell activation. This confirms the specificity of the present model, ensuring that T cell activation in Thy1.2 T cells was solely due to interaction with our experimental BMDCs.
# Naïve CD4+CD25− T cells from spleens and lymph nodes of OT-II mice were isolated by column purification as described above and resuspended in sterile Hanks Balanced Saline Solution (HBSS). […]
# [7] = system: Erk; assay: pERK signaling in BMDCs; type: cell-based, mouse; conditions: 1 mM TDMM 24 hours, CpG (5 uM) 15 minutes
# Method: (§1) The inventors performed a series of assays where bone marrow derived macrophages (BMDMs), bone marrow derived dendritic cells (BMDCs), and splenic dendritic cells (splenic DCs), were exposed to a series of TDMMs, including indole, indole-3-acetate (I3AT), 5-hydroxyindole (5HI), and indole-3-pyruvate (I3P), as well as indole-3-carbinol (I3C; a plant derived compound) to be used for a positive control (1 mM for 24 hours). The BMDMs and BMDCs were stimulated with LPS for 4 hours and assayed at day 7 for expression of various pro-inflammatory cytokines. In a similar assay, the BMDMs and BMDCs were stimulated with LPS or CpG, respectively, for 15 minutes and assayed for pAKT and pERK signaling, which is a reflection of pro-inflammatory response.
# [8] = system: Akt; assay: phospho-Akt signaling in BMDMs; type: cell-based, mouse
# Method: The PI3K/Akt and MAPK/Erk signaling pathways regulate many cellular processes including survival, apoptosis, growth, and cytokine production. […] Specifically, BMDMs were treated with indole (1 mM) or DMF control for 18 hours, then stimulated with LPS (10 ug/ml) or CpG (5 uM) for 30 minutes. Cells were stained for phospho-Akt or phospho-Erk and analyzed by flow cytometry.
# as §1
smiles,measurement,setting,value
"c1ccc2[nH]ccc2c1 [Indole, indole]",reduction in TNF,"[1]; BMDCs exposed to indole from day 3 of 7 day culture, LPS stimulation",30%
same,inhibition of TNF production,"[1]; BMDCs, indole for 18 hours followed by TLR stimulation",~2 fold
same,decrease of Salmonella invasion of HeLa epithelial cells,[2],160 fold
same,particle uptake by DCs,[3],did not alter particle uptake
same,TGF-β production,[4],Neither IL-10 nor TGF-β production were affected
same,surface expression of CCR9 on conditioned DCs,[5],34%
same,Foxp3 mean fluorescence intensity of splenic Tregs,[6],higher mean fluorescence intensity
same,Tregs in the spleen of newly activated T cells compared to RA-DCs or DMF-DCs,[6],two times more Tregs
same,"T cell expansion, less than controls","[6]; spleen, mesenteric and distal lymph nodes",more than 2 fold
same,pERK,[7],↓↓
same,pAKT,"[8]; 1 mM TDMM 24 hours, LPS 1 ug/ml 15 minutes",↓
same,dampening of pAkt signaling,"[8]; indole 1 mM 18 hours, LPS (10 ug/ml) or CpG (5 uM) 30 minutes",approximately 50%
